Laboratory results as given in ChEMBL document CHEMBL1201862, “PubChem BioAssay data set” (2004).
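Each compound was tested at five concentrations against cells in 96-well plates for 48 hours. Abbreviation: GI50, concentration required for 50% inhibition of growth.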 Calls of active or inactive are those of the source. Rule as the data show it: active = GI50 up to about 1.1 µM and inactive = higher.

Legend:
Test in all cases: inhibition of tumour cell growth, NCI panel, 48 h
[1] = test system: 786-0
[2] = test system: A498
[3] = test system: A549
[4] = test system: ACHN
[5] = test system: CAKI-1
[6] = test system: CCRF-CEM
[7] = test system: COLO 205
[8] = test system: DMS-114
[9] = test system: DMS-273
[10] = test system: EKVX
[11] = test system: HCC 2998
[12] = test system: HCT-116
[13] = test system: HCT-15
[14] = test system: HOP-18
[15] = test system: HOP-62
[16] = test system: HOP-92
[17] = test system: HT-29
[18] = test system: IGROV-1
[19] = test system: K562
[20] = test system: KM-20L2
[21] = test system: M19-MEL
[22] = test system: MOLT-4
[23] = test system: Malme-3M
[24] = test system: OVCAR-3
[25] = test system: OVCAR-8
[26] = test system: RPMI-8226
[27] = test system: SF-268
[28] = test system: SF-539
[29] = test system: SK-MEL-28
[30] = test system: SK-MEL-5
[31] = test system: SN12C
[32] = test system: SNB-19
[33] = test system: SNB-75
[34] = test system: SNB-78
[35] = test system: SW-620
[36] = test system: U-251
[37] = test system: UACC-62
[38] = test system: XF498
[39] = test system: DLD-1
[40] = test system: HL-60
[41] = test system: KM12
[42] = test system: LOX IMVI
[43] = test system: MCF7
[44] = test system: NCI-H226
[45] = test system: NCI-H23
[46] = test system: NCI-H460
[47] = test system: NCI-H522
[48] = test system: NCI/ADR-RES
[49] = test system: OVCAR-4
[50] = test system: OVCAR-5
[51] = test system: RXF 393
[52] = test system: SF-295
[53] = test system: SK-MEL-2
[54] = test system: SK-OV-3
[55] = test system: UACC-257
[56] = test system: UO-31

In the case of `NC(=O)c1ccccc1[N+](=O)[O-]`, the GI50 [1] is reported as > 100 µM (inactive), the GI50 [2] is reported as > 100 µM (inactive) and the GI50 [3] is reported as > 100 µM (inactive). For the same compound, the GI50 [4] was > 100 µM (inactive), the GI50 [5] was > 100 µM (inactive) and the GI50 [6] was > 10 µM (inactive). For the same compound, the GI50 [7] was > 100 µM (inactive), the GI50 [8] was > 100 µM (inactive) and the GI50 [9] was > 100 µM (inactive). The GI50 [10] was > 100 µM (inactive), the GI50 [11] was > 100 µM (inactive) and the GI50 [12] was > 100 µM (inactive). The GI50 [13] was > 100 µM, the GI50 [14] was > 100 µM (inactive) and the GI50 [15] was > 100 µM (inactive). For the same compound, the GI50 [16] was > 100 µM (inactive), the GI50 [17] was > 100 µM (inactive) and the GI50 [18] was > 100 µM (inactive). The GI50 [19] was > 100 µM (inactive), the GI50 [20] was > 100 µM (inactive) and the GI50 [21] was > 100 µM (inactive). The GI50 [22] was > 100 µM (inactive), the GI50 [23] was > 100 µM (inactive) and the GI50 [24] was > 100 µM (inactive). The GI50 [25] was > 100 µM (inactive), the GI50 [26] was > 100 µM (inactive) and the GI50 [27] was > 100 µM (inactive). The GI50 [28] was > 100 µM (inactive), the GI50 [29] was > 100 µM (inactive) and the GI50 [30] was > 100 µM (inactive). The GI50 [31] was > 100 µM (inactive), the GI50 [32] was > 100 µM (inactive) and the GI50 [33] was > 100 µM (inactive). For the same compound, the GI50 [34] was > 100 µM (inactive), the GI50 [35] was > 100 µM (inactive) and the GI50 [36] was > 100 µM (inactive). The GI50 [37] was > 100 µM (inactive) and the GI50 [38] was > 100 µM (inactive).

With `c1ccc2c(c1)SCCc1cn[nH]c1-2` the GI50 [2] was > 100 µM (inactive), the GI50 [3] was > 100 µM (inactive) and the GI50 [5] was > 100 µM (inactive). For the same compound, the GI50 [6] was > 100 µM (inactive), the GI50 [7] was > 100 µM (inactive) and the GI50 [39] was > 100 µM (inactive). For the same compound, the GI50 [8] was > 100 µM (inactive), the GI50 [9] was > 100 µM (inactive) and the GI50 [10] was > 100 µM (inactive). For the same compound, the GI50 [11] was > 100 µM (inactive), the GI50 [12] was > 100 µM (inactive) and the GI50 [13] was > 100 µM. The GI50 [40] was > 100 µM (inactive), the GI50 [14] was > 100 µM (inactive) and the GI50 [15] was > 100 µM (inactive). The GI50 [16] was > 73.5 µM (inactive), the GI50 [17] was > 100 µM (inactive) and the GI50 [18] was > 100 µM (inactive). For the same compound, the GI50 [19] was > 100 µM (inactive), the GI50 [20] was > 100 µM (inactive) and the GI50 [41] was > 100 µM (inactive). The GI50 [42] was > 100 µM (inactive), the GI50 [21] was > 100 µM (inactive) and the GI50 [43] was > 100 µM (inactive). The GI50 [22] was > 100 µM (inactive), the GI50 [23] was > 100 µM (inactive) and the GI50 [44] was 24.7 µM (inactive). The GI50 [45] was > 100 µM (inactive), the GI50 [46] was > 100 µM (inactive) and the GI50 [47] was > 100 µM (inactive). For the same compound, the GI50 [48] was > 100 µM (inactive), the GI50 [24] was > 100 µM (inactive) and the GI50 [49] was > 100 µM (inactive). The GI50 [50] was > 100 µM (inactive), the GI50 [25] was > 100 µM (inactive) and the GI50 [51] was > 100 µM (inactive). For the same compound, the GI50 [27] was > 100 µM (inactive), the GI50 [52] was > 100 µM (inactive) and the GI50 [28] was > 100 µM (inactive). For the same compound, the GI50 [29] was > 100 µM (inactive), the GI50 [53] was > 100 µM (inactive) and the GI50 [30] was > 100 µM (inactive). For the same compound, the GI50 [54] was > 100 µM (inactive), the GI50 [31] was > 100 µM (inactive) and the GI50 [32] was > 100 µM (inactive). The GI50 [33] was > 92.5 µM (inactive), the GI50 [34] was > 100 µM (inactive) and the GI50 [35] was > 100 µM (inactive). For the same compound, the GI50 [36] was > 100 µM (inactive), the GI50 [55] was > 100 µM (inactive) and the GI50 [37] was > 100 µM (inactive). The GI50 [56] was > 100 µM (inactive) and the GI50 [38] was > 100 µM (inactive).
